{"source": "patent US6544985B2", "about": "“Dihydro-benzo [b][1,4]diazepin-2-one derivatives” (Hoffman-La Roche Inc., priority 2001, dated 2003)"}
{"smiles": "O=C1CC(c2cccc(-n3nncc3CO)c2)=Nc2cc(N3CCCCC3)c(Cl)cc2N1", "note": "[Example 50, 8-Chloro-4-[3-(5-hydroxymethyl-[1,2,3]triazol-1-yl)-phenyl]-7-piperidin-1-yl-1,3-dihydro-benzo[b][1,4]diazepin-2-one]", "melting point": "246 °C (dec.)"}
{"smiles": "CN(C)c1cc2c(cc1C(F)(F)F)NC(=O)CC(c1cccc(-c3cc(CO)on3)c1)=N2", "note": "[Example 51, 7-Dimethylamino-4-[3-(5-hydroxymethyl-isoxazol-3-yl)-phenyl]-8-trifluoromethyl-1,3-dihydro-benzo[b][1,4]diazepin-2-one]", "melting point": "211 °C (dec.)"}
{"smiles": "CN(C)c1cc2c(cc1C(F)(F)F)NC(=O)CC(c1cccc(-c3cc(CN4CCCC4)no3)c1)=N2", "note": "[Example 53, 7-Dimethylamino-4-[3-(3-pyrrolidin-1-ylmethyl-isoxazol-5-yl)-phenyl]-8-trifluoromethyl-1,3-dihydro-benzo[b][1,4]diazepin-2-one]", "melting point": "160 °C"}
{"smiles": "CN(C)Cc1cc(-c2cccc(C3=Nc4cc(N(C)C)c(C(F)(F)F)cc4NC(=O)C3)c2)on1", "note": "[Example 55, 7-Dimethylamino-4-[3-(3-dimethylaminomethyl-isoxazol-5-yl)-phenyl]-8-trifluoromethyl-1,3-dihydro-benzo[b][1,4]diazepin-2-one]", "melting point": "160 °C"}
{"smiles": "N#Cc1cc(C2=Nc3cc(N4CCCC4)c(F)cc3NC(=O)C2)ccn1", "note": "[Example 56, 4-(7-Fluoro-4-oxo-8-pyrrolidin-1-yl-4,5-dihydro-3H-benzo[b][1,4]diazepin-2-yl)-pyridine-2-carbonitrile]", "melting point": "278 to 279 °C"}
{"smiles": "Cc1cc(-c2cccc(C3=Nc4cc(N5CCCC5)c(F)cc4NC(=O)C3)c2)on1", "note": "[Example 57, 8-Fluoro-4-[3-(3-methyl-isoxazol-5-yl)-phenyl]-7-pyrrolidin-1-yl-1,3-dihydro-benzo[b][1,4]diazepin-2-one]", "melting point": "236 °C"}
{"smiles": "O=C1CC(c2cccc(-n3nncc3CO)c2)=Nc2cc(N3CCCC3)c(F)cc2N1", "note": "[Example 58, 8-Fluoro-4-[3-(5-hydroxymethyl-[1,2,3]triazol-1-yl)-phenyl]-7-pyrrolidin-1-yl-1,3-dihydro-benzo[b][1,4]diazepin-2-one]", "melting point": "184 to 185 °C"}
{"smiles": "N#Cc1cc(C2=Nc3cc(N4CCC4)c(Cl)cc3NC(=O)C2)ccn1", "note": "[Example 59, 4-(8-Azetidin-1-yl-7-chloro-4-oxo-4,5-dihydro-3H-benzo[b][1,4]diazepin-2-yl)-pyridine-2-carbonitrile]", "melting point": "276 °C"}
{"smiles": "O=C1CC(c2cccc(-c3cc(CO)on3)c2)=Nc2cc(N3CCCC3)c(C(F)(F)F)cc2N1", "note": "[Example 60, 4-[3-(5-Hydroxymethyl-isoxazol-3-yl)-phenyl]-7-pyrrolidin-1-yl-8-trifluoromethyl-1,3-dihydro-benzo[b][1,4]diazepin-2-one]", "melting point": "206 to 208 °C"}
{"smiles": "N#Cc1cc(C2=Nc3cc(N4CCC4)c(C(F)(F)F)cc3NC(=O)C2)ccn1", "note": "[Example 61, 4-(8-Azetidin-1-yl-4-oxo-7-trifluoromethyl-4,5-dihydro-3H-benzo[b][1,4]diazepin-2-yl)-pyridine-2-carbonitrile]", "melting point": "241 °C"}
{"smiles": "Cc1cc(-c2cccc(C3=Nc4cc(N5CCC5)c(C(F)(F)F)cc4NC(=O)C3)c2)on1", "note": "[Example 62, 7-Azetidin-1-yl-4-[3-(3-methyl-isoxazol-5-yl)-phenyl]-8-trifluoromethyl-1,3-dihydro-benzo[b][1,4]diazepin-2-one]", "melting point": "239 °C (dec.)"}
{"smiles": "O=C1CC(c2cccc(-n3nncc3CO)c2)=Nc2cc(N3CCC3)c(C(F)(F)F)cc2N1", "note": "[Example 63, 7-Azetidin-1-yl-4-[3-(5-hydroxymethyl-[1,2,3]triazol-1-yl)-phenyl]-8-trifluoromethyl-1,3-dihydro-benzo[b][1,4]diazepin-2-one]", "melting point": "202 °C (dec.)"}
{"smiles": "CN(C)c1cc2c(cc1C(F)(F)F)NC(=O)CC(c1cccc(-n3cccn3)c1)=N2", "note": "[Example 64, 7-Dimethylamino-4-(3-pyrazol-1-yl-phenyl)-8-trifluoromethyl-1,3-dihydro-benzo[b][1,4]diazepin-2-one]", "melting point": "176 °C"}
{"smiles": "CN(C)c1cc2c(cc1C(F)(F)F)NC(=O)CC(c1cccc(-n3cnnc3)c1)=N2", "note": "[Example 65, 7-Dimethylamino-4-(3-[1,2,4]triazol-4-yl-phenyl)-8-trifluoromethyl-1,3-dihydro-benzo[b][1,4]diazepin-2-one]", "melting point": "247 to 250 °C"}
{"smiles": "CN(C)c1cc2c(cc1C(F)(F)F)NC(=O)CC(c1cccc(-n3ccnc3)c1)=N2", "note": "[Example 66, 7-Dimethylamino-4-(3-imidazol-1-yl-phenyl)-8-trifluoromethyl-1,3-dihydro-benzo[b][1,4]diazepin-2-one]", "melting point": "203 to 205 °C"}
{"smiles": "CN(C)c1cc2c(cc1Cl)NC(=O)CC(c1cccc(-n3cc(CO)cn3)c1)=N2", "note": "[Example 67, 8-Chloro-7-dimethylamino-4-[3-(4-hydroxymethyl-pyrazol-1-yl)-phenyl]-1,3-dihydro-benzo[b][1,4]diazepin-2-one]", "melting point": "211 °C"}
{"smiles": "CN(C)c1cc2c(cc1C(F)(F)F)NC(=O)CC(c1cccc(-n3cc(CO)cn3)c1)=N2", "note": "[Example 68, 7-Dimethylamino-4-[3-(4-hydroxymethyl-pyrazol-1-yl)-phenyl]-8-trifluoromethyl-1,3-dihydro-benzo[b][1,4]diazepin-2-one]", "melting point": "175 °C"}
{"smiles": "Cc1noc(-c2cccc(C3=Nc4cc(N(C)C)c(C(F)(F)F)cc4NC(=O)C3)c2)c1CO", "note": "[Example 69, 7-Dimethylamino-4-[3-(4-hydroxymethyl-3-methyl-isoxazol-5-yl)-phenyl]-8-trifluoromethyl-1,3-dihydro-benzo[b][1,4]diazepin-2-one]", "melting point": "207 to 208 °C"}
{"smiles": "CN(C)c1cc2c(cc1C(F)(F)F)NC(=O)CC(c1cccc(-c3nocc3CO)c1)=N2", "note": "[Example 70, 7-Dimethylamino-4-[3-(4-hydroxymethyl-isoxazol-3-yl)-phenyl]-8-trifluoromethyl-1,3-dihydro-benzo[b][1,4]diazepin-2-one]", "melting point": "217 to 219 °C"}
{"smiles": "CN(C)c1cc2c(cc1C(F)(F)F)NC(=O)CC(c1cccc(-c3c(CO)cnn3C)c1)=N2", "note": "[Example 72, 7-Dimethylamino-4-[3-(4-hydroxymethyl-2-methyl-2H-pyrazol-3-yl)-phenyl]-8-trifluoromethyl-1,3-dihydro-benzo[b][1,4]diazepin-2-one]", "melting point": "243 to 244 °C"}
{"smiles": "CN(C)c1cc2c(cc1Cl)NC(=O)CC(c1cccc(-n3cncn3)c1)=N2", "note": "[Example 73, 8-Chloro-7-dimethylamino-4-(3-[1,2,4]triazol-1-yl-phenyl)-1,3-dihydro-benzo[b][1,4]diazepin-2-one]", "melting point": "239 to 241 °C"}
{"smiles": "CN(C)c1cc2c(cc1C(F)(F)F)NC(=O)CC(c1cccc(-n3cncn3)c1)=N2", "note": "[Example 74, 7-Dimethylamino-4-(3-[1,2,4]triazol-1-yl-phenyl)-8-trifluoromethyl-1,3-dihydro-benzo[b][1,4]diazepin-2-one]", "melting point": "228 to 230 °C"}
{"smiles": "CN(C)c1cc2c(cc1C(F)(F)F)NC(=O)CC(c1cccc(C#N)c1)=N2", "note": "[Example 75, 3-(8-Dimethylamino-4-oxo-7-trifluoromethyl-4,5-dihydro-3H-benzo[b][1,4]diazepin-2-yl)-benzonitrile]", "melting point": "224 to 227 °C"}
